Data published in patent US6960614B2, “Oxygenated esters of 4-lodo phenylamino benzhydroxamic acids” (Warner-Lambert Company, priority 2000, dated 2005).

Columns and labels:
MEK = assay: Cellular Assay for Measuring MEK Inhibition (inhibition of ERK phosphorylation in C26 cells, Western blot); assay type: cell-based, murine; conditions: for IC50: inhibition of ERK phosphorylation in murine colon 26 (C26) carcinoma cells, determined graphically from dose response curve; for % Inhibition @ 0.1 μM / % Inhibition @ 1 μM / % Inhibition @ 10 μM: ERK phosphorylation in C26 cells
Procedure, shortened: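 Read-out is phospho-ERK1/2 by Western blot, normalized against total ERK1/2 after stripping and re-probing. Murine C26 colon carcinoma cells in exponential growth were exposed to a range of compound concentrations at 37° C before lysis.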

SMILES | IC50 (MEK) [µM] | % Inhibition @ 0.1 μM (MEK) [%] | % Inhibition @ 1 μM (MEK) [%] | further results
CC(C)(CO)ONC(=O)c1cc(Br)c(F)c(F)c1Nc1ccc(I)cc1Cl [Example 62, 5-Bromo-2-(2-chloro-4-iodo-phenylamino)-3,4-difluoro-N-(2-hydroxy-1,1-dimethyl-ethoxy)-benzamide] | 0.018 | – | – | melting point: 179 to 181 °C
O=C(NOCCCO)c1cc(Br)c(F)c(F)c1Nc1ccc(I)cc1Cl [Example 31, 5-Bromo-2-(2-chloro-4-iodo-phenylamino)-3,4-difluoro-N-(3-hydroxy-propoxy)-benzamide] | – | – | – | melting point: 120 to 121 °C
O=C(NOCC(O)CO)c1cc(Br)c(F)c(F)c1Nc1ccccc1F (centres unmarked) [Example 84, 5-Bromo-N-(2,3-dihydroxy-propoxy)-3,4-difluoro-2-(2-fluoro-phenylamino)-benzamide] | – | – | – | melting point: 143.5 to 144.5 °C
C=COCCONC(=O)c1ccc(F)c(F)c1Nc1ccc(I)cc1Cl [Example 56, 2-(2-Chloro-4-iodo-phenylamino)-3,4-difluoro-N-(2-vinyloxy-ethoxy)-benzamide] | – | – | – | melting point: 141.5 to 143 °C
O=C(NOCCO)c1cc(F)c(F)cc1Nc1ccc(I)cc1F [Example 18, 4,5-Difluoro-2-(2-fluoro-4-iodo-phenylamino)-N-(2-hydroxy-ethoxy)-benzamide] | – | – | – | melting point: 189.6 to 190.6 °C
C=COCCONC(=O)c1cc(Cl)c(F)c(F)c1Nc1ccc(I)cc1F [Example 60, 5-Chloro-3,4-difluoro-2-(2-fluoro-4-iodo-phenylamino)-N-(2-vinyloxy-ethoxy)-benzamide] | – | – | – | melting point: 119 to 120 °C
O=C(NOCC1(CO)CC1)c1cc(Cl)c(F)c(F)c1Nc1ccc(F)cc1F [Example 225, 5-Chloro-2-(2,4-difluoro-phenylamino)-3,4-difluoro-N-(1-hydroxymethyl-cyclopropylmethoxy)-benzamide] | – | 0 | 8.7 | % Inhibition @ 10 μM (MEK): 36.9%
Cc1cc(I)ccc1Nc1c(C(=O)NOCC(C)(C)CO)cc(Cl)c(F)c1F [Example 201, 5-Chloro-3,4-difluoro-N-(3-hydroxy-2,2-dimethyl-propoxy)-2-(4-iodo-2-methyl-phenylamino)-benzamide] | 0.1 | – | – | –
CCC(O)CONC(=O)c1cc(F)c(F)cc1Nc1ccc(I)cc1F (centres unmarked) [Example 115, 4,5-Difluoro-2-(2-fluoro-4-iodo-phenylamino)-N-(2-hydroxy-butoxy)-benzamide] | – | 94.8 | 98.5 | –
CC(C)(O)CONC(=O)c1ccc(F)c(F)c1Nc1ccc(F)cc1F [Example 181, 2-(2,4-Difluoro-phenylamino)-3,4-difluoro-N-(2-hydroxy-2-methyl-propoxy)-benzamide] | – | – | 0 | % Inhibition @ 10 μM (MEK): 65.1%
O=C(NOCCNc1ccccc1)c1cc(Br)c(F)c(F)c1Nc1ccc(I)cc1Cl [Example 235, 5-Bromo-2-(2-chloro-4-iodo-phenylamino)-3,4-difluoro-N-(2-phenylamino-ethoxy)-benzamide] | 0.062 | – | – | –
O=C(NOCC(O)CO)c1cc(Br)c(F)c(F)c1Nc1ccc(I)cc1Cl (centres unmarked) [Example 88, 5-Bromo-2-(2-chloro-4-iodo-phenylamino)-N-(2,3-dihydroxy-propoxy)-3,4-difluoro-benzamide] | 0.11 | – | – | –
CC(C)(O)CONC(=O)c1cc(F)c(F)c(F)c1Nc1ccc(I)cc1Cl [Example 170, 2-(2-Chloro-4-iodo-phenylamino)-3,4,5-trifluoro-N-(2-hydroxy-2-methyl-propoxy)-benzamide] | – | 19 | 85.7 | –
O=C(NOCC(O)CN1CCOCC1)c1ccc(F)c(F)c1Nc1ccc(I)cc1F (centres unmarked) [Example 151, 3,4-Difluoro-2-(2-fluoro-4-iodo-phenylamino)-N-(2-hydroxy-3-morpholin-4-yl-propoxy)-benzamide] | 0.041 | – | – | –
O=C(NOCC(O)C(F)(F)F)c1ccc(F)c(F)c1Nc1ccc(Cl)cc1F (centres unmarked) [Example 213, 2-(4-Chloro-2-fluoro-phenylamino)-3,4-difluoro-N-(3,3,3-trifluoro-2-hydroxy-propoxy)-benzamide] | – | 6.2 | 78.7 | –
CC(O)CONC(=O)c1ccc(F)c(F)c1Nc1ccc(I)cc1Cl (centres unmarked) [Example 156, 2-(2-Chloro-4-iodo-phenylamino)-3,4-difluoro-N-(2-hydroxy-propoxy)-benzamide] | 0.011 | – | – | –
Cc1cc(I)ccc1Nc1c(C(=O)NOCC(C)(C)O)cc(F)c(F)c1F [Example 171, 3,4,5-Trifluoro-N-(2-hydroxy-2-methyl-propoxy)-2-(4-iodo-2-methyl-phenylamino)-benzamide] | – | 35.6 | 94.6 | –
O=C(NOCCC(O)CO)c1ccc(F)c(F)c1Nc1ccc(I)cc1Cl (centres unmarked) [Example 92, 2-(2-Chloro-4-iodo-phenylamino)-N-(3,4-dihydroxy-butoxy)-3,4-difluoro-benzamide] | – | 51.8 | 92.4 | –
CCC(O)CONC(=O)c1cc(Cl)c(F)c(F)c1Nc1ccc(F)cc1F (centres unmarked) [Example 116, 5-Chloro-2-(2,4-difluoro-phenylamino)-3,4-difluoro-N-(2-hydroxy-butoxy)-benzamide] | – | – | 62.8 | % Inhibition @ 10 μM (MEK): 75.8%
Cc1cc(I)ccc1Nc1c(C(=O)NOC(C)CO)ccc(F)c1F (centres unmarked) [Example 126, 3,4-Difluoro-N-(2-hydroxy-1-methyl-ethoxy)-2-(4-iodo-2-methyl-phenylamino)-benzamide] | 0.026 | – | – | –
COCCONC(=O)c1cc(Br)c(F)c(F)c1Nc1ccc(I)cc1Cl [Example 139, 5-Bromo-2-(2-chloro-4-iodo-phenylamino)-3,4-difluoro-N-(2-methoxy-ethoxy)-benzamide] | 0.36 | – | – | –
CCC(O)CONC(=O)c1ccc(F)c(F)c1Nc1ccc(Br)cc1F (centres unmarked) [Example 118, 2-(4-Bromo-2-fluoro-phenylamino)-3,4-difluoro-N-(2-hydroxy-butoxy)-benzamide] | – | 74.6 | 95.6 | –
CC(CO)ONC(=O)c1ccc(F)c(F)c1Nc1ccc(F)cc1F (centres unmarked) [Example 133, 2-(2,4-Difluoro-phenylamino)-3,4-difluoro-N-(2-hydroxy-1-methyl-ethoxy)-benzamide] | – | 0 | 26.4 | –
O=C(NOCCCO)c1cc(Br)c(F)c(F)c1Nc1ccc(I)cc1Cl [Example 98, 5-Bromo-2-(2-chloro-4-iodo-phenylamino)-3,4-difluoro-N-(3-hydroxy-propoxy)-benzamide] | 0.011 | – | – | –
CC(C)(CO)CONC(=O)c1ccc(F)c(F)c1Nc1ccc(I)cc1F [Example 202, 3,4-Difluoro-2-(2-fluoro-4-iodo-phenylamino)-N-(3-hydroxy-2,2-dimethyl-propoxy)-benzamide] | – | 59.7 | 94.6 | –
O=C(NOCC(O)CN1CCOCC1)c1ccc(F)c(F)c1Nc1ccc(I)cc1Cl (centres unmarked) [Example 143, 2-(2-Chloro-4-iodo-phenylamino)-3,4-difluoro-N-(2-hydroxy-3-morpholin-4-yl-propoxy)-benzamide] | 0.6 | – | – | –
CC(CO)ONC(=O)c1ccc(F)c(F)c1Nc1ccc(Cl)cc1F (centres unmarked) [Example 125, 2-(4-Chloro-2-fluoro-phenylamino)-3,4-difluoro-N-(2-hydroxy-1-methyl-ethoxy)-benzamide] | – | 9.1 | 89 | –
